As usually defined, the EC50 is the concentration needed to bring the measured effect to its halfway point. One may read the IC50 as the concentration that gives 50% inhibition.

EC50, Activity and IC50 data for 13 molecules are collected here from ChEMBL document CHEMBL5390210, “Discovery of novel indazole derivatives as SOS1 agonists that activate KRAS signaling” (Bioorg Med Chem, 2023).

Experiment [1] deals with T1, Son of sevenless homolog 1 (Homo sapiens, UniProt Q07889).
T1 sequence (Q07889 whole entry): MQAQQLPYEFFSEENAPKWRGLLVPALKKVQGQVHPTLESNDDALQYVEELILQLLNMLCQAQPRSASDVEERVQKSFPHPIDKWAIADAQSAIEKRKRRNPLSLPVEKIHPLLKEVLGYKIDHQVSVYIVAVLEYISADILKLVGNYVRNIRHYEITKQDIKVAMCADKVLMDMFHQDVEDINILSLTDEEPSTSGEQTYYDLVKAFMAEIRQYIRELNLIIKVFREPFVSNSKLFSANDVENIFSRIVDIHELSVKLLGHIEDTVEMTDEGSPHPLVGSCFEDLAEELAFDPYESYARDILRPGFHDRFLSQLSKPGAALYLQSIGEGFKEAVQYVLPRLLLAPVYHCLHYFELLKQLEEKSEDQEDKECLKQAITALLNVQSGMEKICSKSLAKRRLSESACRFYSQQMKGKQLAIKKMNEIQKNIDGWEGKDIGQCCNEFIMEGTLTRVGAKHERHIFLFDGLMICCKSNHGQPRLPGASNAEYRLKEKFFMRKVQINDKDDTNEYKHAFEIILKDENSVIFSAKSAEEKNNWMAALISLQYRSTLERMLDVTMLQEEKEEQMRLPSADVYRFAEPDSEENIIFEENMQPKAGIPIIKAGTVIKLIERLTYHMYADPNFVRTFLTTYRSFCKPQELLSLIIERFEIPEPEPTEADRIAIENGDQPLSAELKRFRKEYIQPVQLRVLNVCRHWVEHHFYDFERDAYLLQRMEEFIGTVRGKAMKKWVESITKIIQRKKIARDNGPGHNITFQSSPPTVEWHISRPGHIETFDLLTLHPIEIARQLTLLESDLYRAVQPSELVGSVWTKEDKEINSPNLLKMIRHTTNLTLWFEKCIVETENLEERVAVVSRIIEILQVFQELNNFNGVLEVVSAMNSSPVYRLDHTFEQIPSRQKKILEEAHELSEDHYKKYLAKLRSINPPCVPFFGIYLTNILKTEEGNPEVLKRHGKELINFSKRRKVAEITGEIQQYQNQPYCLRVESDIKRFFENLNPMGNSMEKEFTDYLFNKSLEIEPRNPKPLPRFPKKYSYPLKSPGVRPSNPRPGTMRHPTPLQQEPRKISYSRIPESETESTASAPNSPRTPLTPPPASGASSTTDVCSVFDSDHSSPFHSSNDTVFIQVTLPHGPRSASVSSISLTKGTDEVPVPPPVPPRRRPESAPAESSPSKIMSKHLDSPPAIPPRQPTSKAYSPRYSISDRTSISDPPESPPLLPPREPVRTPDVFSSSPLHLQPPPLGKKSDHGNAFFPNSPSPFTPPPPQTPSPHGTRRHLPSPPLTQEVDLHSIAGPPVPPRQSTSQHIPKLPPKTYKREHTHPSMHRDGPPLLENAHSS
The experiment in a line: Agonist activity at SOS1 in human HeLa cells expressing wild type KRAS assessed as increase in p-ERK level incubated for 30 mins by Western blot analysis. The experiment is classed as cell-based. (In general: In western blotting, separated proteins are transferred to a membrane and probed.)

For experiment [2], the system named is NCI-H358. Kind of experiment: Activation of RAS signaling pathway in human NCI-H358 cells expressing KRAS G12C mutant assessed as upregulation of p-ERK level incubated for 4 hrs by Western blot analysis. The experiment is classed as cell-based. The settings on record: filed as activator, dose 0-20 µM.
The subject of experiment [3] is HeLa. Kind of experiment: Antiproliferative activity against human HeLa cells expressing wild type KRAS assessed as inhibition of cell growth incubated for 72 hrs by CCK-8 assay. It is filed as functional, cell-based. Background: Formazan colour is commonly taken as a measure of viable cells.
Experiment [4] deals with NCI-H358. The experiment in a line: Antiproliferative activity against human NCI-H358 cells expressing KRAS G12C mutant assessed as inhibition of cell growth incubated for 72 hrs by CCK-8 assay. The note with it: NCI-H358, 72 h. The experiment is classed as functional, cell-based.
The test system of a further experiment is A549. Kind of experiment: Antiproliferative activity against human A549 cells expressing KRAS G12S mutant assessed as inhibition of cell growth incubated for 72 hrs by CCK-8 assay. It is filed as functional, cell-based. The note with it: A549, 72 h.
Experiment [5] has as its target T2, Son of sevenless homolog 1 (Homo sapiens) (UniProt Q07889).
T2 sequence (whole entry): T1 sequence (Q07889 whole entry)
Kind of experiment: Binding affinity to SOS1 in human HeLa cells expressing wild type KRAS assessed as increase in thermal stability at 37 to 52 degreeC at 10 uM incubated for 1 hr by CETSA. It is filed as cell-based.

Experiment [6] addresses T2, Son of sevenless homolog 1 (Homo sapiens). The experiment in a line: Binding affinity to SOS1 in human NCI-H358 cells expressing KRAS G12C mutant assessed as increase in thermal stability at 37 to 52 degreeC at 10 uM incubated for 1 hr by CETSA. The experiment is classed as cell-based.
Experiment [7] deals with HeLa. Kind of experiment: Binding affinity to Pan-Ras GTPase in human HeLa cells expressing wild type KRAS assessed as increase in thermal stability at 37 to 60 degreeC at 10 uM incubated for 1 hr by CETSA. The experiment is classed as cell-based.
Experiment [8] has as its system NCI-H358. The experiment in a line: Binding affinity to Pan-Ras GTPase in human NCI-H358 cells expressing KRAS G12C mutant assessed as increase in thermal stability at 37 to 60 degreeC at 10 uM incubated for 1 hr by CETSA. It is filed as cell-based.
For experiment [9], the target named is T2, Son of sevenless homolog 1 (Homo sapiens). Kind of experiment: Agonist activity at SOS1 in human HeLa cells with siRNA-mediated SOS1 knockdown assessed as activation of p-ERK1/2 at <25 uM incubated for 30 mins by immunoblot analysis. The experiment is classed as cell-based.
Experiment [10] has the same target. Kind of experiment: Agonist activity at SOS1 in human HeLa cells assessed as activation of p-ERK1/2 at 3.1 to 25 uM incubated for 30 mins by immunoblot analysis. It is filed as cell-based. The note with it: filed as agonist, dose 3.1-25 µM.
Experiment [11] has the same target. Kind of experiment: Agonist activity at SOS1 in human HeLa cells expressing wild type KRAS assessed as increase in ERK1/2 phosphorylation by measuring increase in RAS-GTP level incubated for 30 mins by Western blot based pull down assay. It is filed as cell-based. The settings on record: filed as agonist, dose 0-25 µM.
Experiment [12] shares this target. The experiment in a line: Agonist activity at SOS1 in human HeLa cells expressing wild type KRAS assessed as increase in p-ERK1/2 level at T202/Y204 residue at 0 to 12.5 uM incubated for 30 mins by Western blot analysis. It is filed as cell-based. The settings on record: filed as agonist, dose 0-12.5 µM.
The target is the same in experiment [13]. Kind of experiment: Agonist activity at SOS1 in human HeLa cells expressing wild type KRAS assessed as increase in p-ERK1/2 level at T202/Y204 residue over 25 uM incubated for 30 mins by Western blot analysis. The experiment is classed as cell-based.

Calls of active or inactive are those of the source. The calls are words filed in the database; no cut-off is given here.

For the molecule `C=CC(=O)N1CC2(CC(n3nc(C(=O)Nc4ccc5[nH]ncc5c4)c4ccccc43)C2)C1`, the 50% effective concentration (EC50) in experiment [1] was more than 20 µM.
Same read-out and setting: the value for `C=CC(=O)N1CC2(CC(n3nc(C(=O)N4CCCc5cc(OC)ccc54)c4ccccc43)C2)C1` was more than 20 µM; that for `C=CC(=O)N1CC2(CC(n3nc(C(=O)Nc4ccc5[nH]ncc5c4)c4cc(-c5cn[nH]c5)ccc43)C2)C1` was more than 20 µM; that for `Cn1cc(-c2ccc3c(c2)c(-c2ccc4c(cnn4C)c2)nn3C2CC3(CNC3)C2)cn1` was more than 20 µM.
Regarding `C=CC(=O)N1CC2(CC(n3nc(-c4ccc5c(cnn5C)c4)c4cc(-c5c[nH]nc5C)c(Cl)cc43)C2)C1`, in [1], the concentration for a half-maximal effect (EC50) was found to be 14.2 µM. Moreover, the Activity entry with NCI-H358 [2] is “Dose-Dependent Effect”.
Turning to `Cn1ncc2cc(-c3nn(C4CC5(CNC5)C4)c4ccc(-c5cn[nH]c5)cc34)ccc21`, the half-maximal effective concentration (EC50) in [1] was more than 20 µM.
Turning to `C=CC(=O)N1CC2(CC(n3nc(C(=O)Nc4ccc5c(cnn5C)c4)c4ccccc43)C2)C1`, in experiment [1], the EC50 was more than 20 µM.
On to `C=CC(=O)N1CC2(CC(n3nc(C(=O)Nc4ccc5c(cnn5C)c4)c4cc(-c5cn[nH]c5)ccc43)C2)C1`, for which, in experiment [1], the EC50 amounted to 1.53 µM. Moreover, the IC50 was found to be 9.19 µM with HeLa [3], 6.04 µM with NCI-H358 [4] and 9.61 µM with A549. Besides, the outcome in [5], in [6], in [10], in [11] and in experiment [12] was Active. Moreover, the result (with HeLa [7]; with NCI-H358 [8]; in experiment [9]; in experiment [13]) was inactive.
On to `C=CC(=O)N1CC2(CC(n3nc(C(=O)N4CCc5cc(OC)ccc5C4)c4ccccc43)C2)C1`, for which the EC50 in [1] is more than 20 µM.
For `CCC(=O)N1CC2(CC(n3nc(C(=O)Nc4ccc5c(cnn5C)c4)c4cc(-c5cn[nH]c5)ccc43)C2)C1`, the concentration for a half-maximal effect (EC50) in experiment [1] is 4.37 µM.
The same measure, in the same setting: under `C=CC(=O)N1CC2(CC(n3nc(C(=O)Nc4ccc5cnn(C)c5c4)c4cc(-c5cn[nH]c5)ccc43)C2)C1` stands 5.45 µM; under `Cn1ncc2cc(NC(=O)c3nn(C4CC5(CNC5)C4)c4ccc(-c5cn[nH]c5)cc34)ccc21`, more than 20 µM.
The same measure, in the same setting: the value for `C=CC(=O)N1CC2(CC(n3nc(-c4ccc5c(cnn5C)c4)c4cc(-c5cn[nH]c5)ccc43)C2)C1` was 9.01 µM.
